{"source": "patent US20080275049A1", "about": "“Methods and Compositions for Upregulation of GATA Activity” (REDDY US THERAPEUTICS, INC., priority 2007, published 2008)", "key": {"[1]": {"system": "Ob/ob mice", "assay": "Plasma glucose in ob/ob mice (insulin resistance and diabetes model)", "assay_type": "in vivo", "settings": "2 and 4 weeks of treatment, FIG. 9", "method": "Glucose Measurements: Glucose levels were measured at the end of the studies using commercially available kits. Ob/ob mice were treated with control vehicle or vehicle containing Compound A (GATA activator) or vehicle containing pioglitazone (a known antidiabetic drug)."}, "[2]": {"system": "Pancreatic beta cells", "assay": "Glucose stimulated insulin secretion in pancreatic beta cells", "assay_type": "cell-based", "settings": "25 uM, FIG. 8", "method": "Pancreatic beta cells were incubated with compound A (25 uM). Following treatment glucose stimulated insulin secretion was determined."}, "[3]": {"system": "cholesterol fed rat", "assay": "HDL in cholesterol fed rat model", "assay_type": "in vivo", "settings": "FIG. 5", "method": "Lipid Measurements: Lipid levels were measured at the end of the studies using commercially available kits.\nAtherosclerosis is associated with dyslipidemia (increased LDL and low HDL)."}, "[4]": {"system": "RCT gene (apolipoprotein E, SRB1 and LCAT)", "assay": "RCT gene expression in pancreatic beta cells", "assay_type": "cell-based", "settings": "25 uM, FIG. 7", "method": "Pancreatic beta cells were incubated with compound A (25 uM). Following treatment total RNA was isolated and RCT gene (apolipoprotein E, SRB1 and LCAT) expression was determined."}, "[5]": {"system": "GATA1", "assay": "GATA knock-down (siRNA), inducible RCT gene expression", "assay_type": "cell-based, human", "settings": "normal vs GATA-knockdown (siRNA) HepG2 cells; FIG. 2", "method": "GATA knock-down: HepG2 cells were grown in T-75 flasks prior to study. Transfection of GATA1 specific siRNA in 24-well plates was performed according to the manufacturer's instructions. After 48 hours, RNA was isolated and RT-PCR was performed to examine changes in GATA1 and RCT message levels all normalized to actin. In some experiments, after 48 hours post transfection, media was removed and normal growth media+one of Compounds A-E or DMSO control was added to the wells. RNA isolation and RT-PCR was then performed as stated above.\nTo determine the role of GATA on inducible RCT gene expression, molecular approaches were used to reduce GATA expression. GATA expression was reduced by siRNA gene silencing. In this test, a candidate compound (Compound A), known for its ability to function as a GATA inducer, was added to both normal and GATA-knockdown cells as described above."}, "[6]": {"system": "GATA", "assay": "GATA luciferase reporter assay (GATA activity)", "assay_type": "cell-based, human", "settings": "HepG2 cells transfected with GATA luciferase construct, treated overnight; FIG. 3", "method": "GATA activity: HepG2 cells were grown in T-75 flasks prior to study. 24-well plates were seeded in normal medium without antibiotics to yield ˜50% confluency. The following day, cells were transfected according to the manufacturer's protocol and allowed to incubate overnight. The next day, the media was replaced and cells were treated with vehicle (DMSO) or one of Compounds A-E overnight. Cells were lysed by adding lysis buffer and assayed for luciferase activity.\nAn in vitro high-throughput assay based on luciferase activity to screen for and identify agents that upregulate GATA activity was developed. HepG2 cells were grown in T-75 flasks prior to study. 24-well plates were seeded in normal medium without antibiotics to yield ˜50% confluency. The following day, cells were transfected (Roche, FuGENE 6 transfection reagent, cat#11815091001) with a GATA luciferase construct (Panomics, cat#LR0027) according to the manufacturer's protocol and allowed to incubate overnight. The next day, the media was replaced and cells were treated with vehicle (DMSO) or GATA inducer candidate compounds (Compounds A-E) overnight. Cells were lysed by adding lysis buffer (Promega, cat#E1500) and assayed for luciferase activity (Perkin Elmer Envision 2101 Multi-Label Reader)."}, "[7]": {"system": "RCT genes", "assay": "Real time quantitative PCR screen for RCT gene induction", "assay_type": "cell-based, human", "settings": "cells treated, total RNA, FIG. 4", "method": "PT-PCR Screen: Human liver cells (HepG2) were grown in T-75 flasks prior to study. 96-well plates were seeded, and the following day, cells were washed with PBS and treated with serum free media for 24 hours. The next day, cells were treated with vehicle (DMSO) or with one of Compounds A-E overnight. RNA was isolated and RT-PCR was performed to examine changes in RCT gene message levels normalized to actin.\nAn in vitro high-throughput assay based on real time quantitative PCR was developed to screen for and identify agents that simultaneously upregulate RCT genes. Cells were treated with pharmaceutical agents, some of which are GATA inducers as described above. Total RNA was isolated and used in the real time assay."}, "[8]": {"system": "ApoE −/− mice", "assay": "Lipid content of aortas in ApoE −/− fat fed mice", "assay_type": "in vivo", "settings": "oral 50 mg/kg/day for 7 days, oil-red O staining, FIG. 6", "method": "Lipid Content: 8 week old ApoE −/− mice were fed a high fat diet for 2 months and then placed on normal chow. The mice were then orally dosed for 7 days with either CMC-tween (control) or Compound C at 50 mg/kg/day. At the end of the study, the aorta was dissected out, fixed in the O.C.T., sections were prepared, stained with oil-red O, and mounted under cover slips. The oil-red O staining was analyzed using quantitation software and reported as lipid content per lesion area.\nAtherosclerosis is also associated with high levels of lipid content in aortas. Compound C was administered to mice according to the method described above and according to conventional animal testing protocol. The lipid content of the aortas was measured."}}}
{"smiles": "CC(=O)c1ccc(Nc2nc(-c3ccccc3)cc(N3CCC(O)CC3)n2)cc1", "note": "[Compound A]", "values": [{"measurement": "plasma glucose", "setting": "[1]", "result": "significantly lower levels of plasma glucose"}, {"measurement": "glucose stimulated insulin secretion", "setting": "[2]", "result": "increased secretion of insulin"}, {"measurement": "HDL", "setting": "[3]", "result": "significantly increased HDL"}, {"measurement": "expression of RCT genes (apolipoprotein E, SRB1 and LCAT)", "setting": "[4]", "result": "increased expression of RCT genes"}, {"measurement": "ability to induce RCT gene expression after GATA knock-down", "setting": "[5]", "result": "blunting of Compound A's ability to induce RCT gene expression"}]}
{"smiles": "CCN1CCCC1CNc1nc(Nc2ccc(OC)c(F)c2)nc(N2CCN(CC(=O)N3CCCC3)CC2)n1", "note": "(stereo not shown) [D]", "values": [{"measurement": "GATA activity (luciferase activity)", "setting": "[6]", "result": "not shown to induce GATA activity"}, {"measurement": "RCT gene expression", "setting": "[7]", "result": "did not induce RCT gene induction"}]}
{"smiles": "CS(=O)(=O)c1ccc(Nc2nc(-c3ccccc3)cc(N3CCC(O)CC3)n2)cc1", "note": "[Compound C]", "values": [{"measurement": "lipid content in aortas", "setting": "[8]", "result": "significantly lowered lipid content"}]}
{"smiles": "COc1ccc(Nc2nc(NC3CCCCCC3)nc(N(C)C3CCN(C)CC3)n2)cc1F", "note": "[E]", "values": [{"measurement": "GATA activity (luciferase activity)", "setting": "[6]", "result": "not shown to induce GATA activity"}, {"measurement": "RCT gene expression", "setting": "[7]", "result": "did not induce RCT gene induction"}]}
